The supplement of paper PMC10307832

What was measured:
Test in all cases: relative viability (nuclei count vs DMSO), 5 days (fraction); higher = more cells survive
[1] = compound: CC[C@H](C)N1C=C(C2=C(C=C(C=C21)C3=CN=C(C=C3)N4CCNCC4)C(=O)NCC5=C(C=C(NC5=O)C)C)C [GSK126] + Cc1nc(NC(=O)N2CCC[C@H]2C(N)=O)sc1-c1ccnc(C(C)(C)C(F)(F)F)c1 [Alpelisib] (partner 2 µM)
In short: (§1)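 Lung cancer cell lines, seeded in 1536-well plates, were treated the following day by pin tool with a single drug or with five library-drug doses (not always all listed) in √10 steps on top of a fixed anchor-drug dose. Cells were fixed and nuclei stained in one step after 5 days, and nuclei were counted. Relative viability is the nuclei count for treated wells divided by that for vehicle wells, reported as medians of duplicate plates.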

[2] = compound: CC[C@H](C)N1C=C(C2=C(C=C(C=C21)C3=CN=C(C=C3)N4CCNCC4)C(=O)NCC5=C(C=C(NC5=O)C)C)C [GSK126] + Nc1ncn([C@H]2C[C@H](O)[C@@H](CO)O2)c(=O)n1 [Decitabine] (partner 2 µM)
In short: as §1

[3] = compound: NS(=O)(=O)OC[C@@H]1C[C@@H](n2ccc3c(N[C@H]4CCc5ccccc54)ncnc32)C[C@@H]1O [MLN4924] + CC(=O)c1c(C)c2cnc(Nc3ccc(N4CCNCC4)cn3)nc2n(C2CCCC2)c1=O [Palbociclib] (partner 0.5 µM)
In short: as §1

[4] = compound: NS(=O)(=O)OC[C@@H]1C[C@@H](n2ccc3c(N[C@H]4CCc5ccccc54)ncnc32)C[C@@H]1O [MLN4924] + O=C(CCCCCCC(=O)Nc1ccccc1)NO [Vorinostat] (partner 1 µM)
In short: as §1

Row | Cell Line | relative viability ([1]; first compound 0.08 µM) | relative viability ([1]; first compound 0.253 µM) | relative viability ([1]; first compound 0.8 µM) | relative viability ([1]; first compound 2.53 µM) | relative viability ([1]; first compound 8 µM) | relative viability ([2]; first compound 0.08 µM) | relative viability ([2]; first compound 0.253 µM) | relative viability ([2]; first compound 0.8 µM) | relative viability ([2]; first compound 2.53 µM) | relative viability ([2]; first compound 8 µM) | relative viability ([3]; first compound 0.04 µM) | relative viability ([3]; first compound 0.1265 µM) | relative viability ([3]; first compound 0.4 µM) | relative viability ([3]; first compound 1.265 µM) | relative viability ([3]; first compound 4 µM) | relative viability ([4]; first compound 0.04 µM) | relative viability ([4]; first compound 0.1265 µM) | relative viability ([4]; first compound 0.4 µM) | relative viability ([4]; first compound 1.265 µM) | relative viability ([4]; first compound 4 µM)
1 | LOU-NH91 | 0.778 | 0.694 | 0.696 | 0.721 | 0.722 | 0.831 | 0.813 | 0.838 | 0.793 | 0.823 | 0.494 | 0.521 | 0.532 | 0.426 | 0.413 | 0.581 | 0.938 | 0.661 | 0.475 | 0.506
2 | NCI-H1355 | 0.935 | 0.836 | 0.762 | 0.876 | 0.901 | 0.391 | 0.334 | 0.318 | 0.336 | 0.416 | 0.418 | 0.409 | 0.445 | 0.234 | 0.195 | 0.592 | 0.629 | 0.496 | 0.236 | 0.227
3 | NCI-H441 | 0.756 | 0.717 | 0.76 | 0.566 | 0.753 | 0.248 | 0.236 | 0.143 | 0.214 | 0.234 | 0.236 | 0.224 | 0.165 | 0.104 | 0.101 | 0.859 | 0.733 | 0.576 | 0.158 | 0.152
4 | NCI-H1395 | 1.12 | 0.937 | 1.08 | 1.2 | 1.03 | 0.718 | 0.671 | 0.713 | 0.736 | 0.652 | 0.726 | 0.679 | 0.528 | 0.357 | 0.354 | 0.556 | 0.766 | 0.523 | 0.341 | 0.361
5 | NCI-H2023 | 0.635 | 0.641 | 0.588 | 0.677 | 0.571 | 0.267 | 0.232 | 0.205 | 0.209 | 0.219 | 0.496 | 0.366 | 0.207 | 0.0822 | 0.0604 | 0.548 | 0.457 | 0.166 | 0.0535 | 0.0695
6 | NCI-H1666 | 1 | 0.964 | 1.05 | 0.962 | 1.12 | 0.731 | 0.755 | 0.755 | 0.82 | 0.726 | 0.553 | 0.549 | 0.693 | 0.492 | 0.46 | 0.697 | 0.623 | 0.653 | 0.443 | 0.444
7 | HCC-15 | 0.915 | 0.88 | 0.816 | 0.858 | 0.759 | 0.739 | 0.656 | 0.685 | 0.59 | 0.609 | 0.477 | 0.172 | 0.196 | 0.0952 | 0.101 | 0.643 | 0.444 | 0.289 | 0.112 | 0.106
8 | NCI-H3122 | 0.827 | 0.854 | 0.767 | 0.768 | 0.829 | 0.417 | 0.373 | 0.386 | 0.466 | 0.543 | 0.162 | 0.0893 | 0.129 | 0.0849 | 0.0684 | 0.708 | 0.579 | 0.232 | 0.103 | 0.0771
9 | 201T | 0.999 | 1.07 | 1.02 | 1.05 | 1.1 | 0.865 | 0.899 | 0.916 | 0.86 | 0.946 | 0.395 | 0.353 | 0.354 | 0.219 | 0.26 | 0.991 | 0.898 | 0.406 | 0.277 | 0.17
10 | RERF-LC-KJ | 0.881 | 0.803 | 0.697 | 0.845 | 0.734 | 0.717 | 0.731 | 0.715 | 0.735 | 0.779 | 0.875 | 0.363 | 0.184 | 0.152 | 0.218 | 0.579 | 0.328 | 0.205 | 0.192 | 0.236
11 | NCI-H1734 | 0.789 | 0.605 | 0.654 | 0.698 | 0.682 | 0.511 | 0.517 | 0.492 | 0.515 | 0.496 | 0.372 | 0.341 | 0.272 | 0.14 | 0.146 | 0.792 | 0.565 | 0.208 | 0.132 | 0.113
12 | NCI-H1651 | 1.13 | 0.946 | 0.933 | 0.938 | 0.936 | 0.64 | 0.634 | 0.606 | 0.772 | 0.624 | 0.521 | 0.54 | 0.569 | 0.374 | 0.191 | 0.585 | 0.613 | 0.638 | 0.474 | 0.239
13 | PC-14 | 0.946 | 0.993 | 0.899 | 0.826 | 0.852 | 0.215 | 0.2 | 0.166 | 0.255 | 0.213 | 0.463 | 0.416 | 0.138 | 0.0525 | 0.0516 | 0.81 | 0.781 | 0.154 | 0.0306 | 0.0361
14 | NCI-H358 | 1.08 | 1.07 | 0.857 | 0.935 | 0.904 | 0.231 | 0.2 | 0.207 | 0.229 | 0.218 | 0.127 | 0.16 | 0.115 | 0.0864 | 0.0788 | 0.621 | 0.479 | 0.264 | 0.0895 | 0.0817
15 | NCI-H1915 | 1.16 | 1.05 | 1.08 | 1.05 | 1.09 | 0.277 | 0.262 | 0.262 | 0.256 | 0.252 | 0.501 | 0.396 | 0.389 | 0.161 | 0.121 | 0.52 | 0.503 | 0.339 | 0.149 | 0.143
